In article PMC6152064 (Molecules : A Journal of Synthetic Chemistry and Natural …, 2017):
Several values for one entry are separate records, joined by “and”; a condition that tells them apart may be missing. Equal entries are not always repeated.

Columns and labels:
[1] = biological target: T1, hGal8^NTD (N-terminal domain of human galectin-8) (Homo sapiens, UniProt O00214); assay: NMR titration, global fit of chemical shift perturbations (CSP); format: binding; settings: 298 K, global fit of CSPs > 2σ
T1 construct: hexahistidine tag (N); made in house; host or cells: Escherichia coli BL21 (DE3)
T1 sequence (O00214 1-155 limits assumed): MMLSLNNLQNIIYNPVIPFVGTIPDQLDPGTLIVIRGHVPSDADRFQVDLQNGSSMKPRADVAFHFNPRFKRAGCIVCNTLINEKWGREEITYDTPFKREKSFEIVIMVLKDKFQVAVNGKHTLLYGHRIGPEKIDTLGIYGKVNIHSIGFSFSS

[2] = biological target: T2, hGal8^CTD (C-terminal domain of human galectin-8) (Homo sapiens, UniProt O00214); assay: as above; format: binding; settings: 298 K, global fit of CSPs > 2σ
T2 construct: the N-terminal and C-terminal domains of galectin-8 (hGal8^NTD and hGal8^CTD, respectively); made in house; host or cells: Escherichia coli BL21 (DE3)
T2 sequence (O00214 187-317 limits assumed): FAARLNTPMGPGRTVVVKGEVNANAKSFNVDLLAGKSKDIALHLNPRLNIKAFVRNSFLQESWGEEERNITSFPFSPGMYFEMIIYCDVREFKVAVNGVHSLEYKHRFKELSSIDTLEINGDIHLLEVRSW

[3] = biological target: T2, hGal8^CTD (C-terminal domain of human galectin-8); assay: 2D NMR lineshape analysis (TITAN), two-state binding model; settings: 298 K
Protocol: (§1) HSQC spectra were also analysed by the TITAN program using a two-state binding model. […] Eight peaks with significant CSPs were chosen to be fitted for each titration experiment. Error analysis was performed by the bootstrap resampling module in the program with 100 resampled spectra.

[4] = biological target: T1, hGal8^NTD (N-terminal domain of human galectin-8); assay: as above; settings: Lactose Kd, 298 K
Protocol: as §1

hGal7 = biological target: T3, hGal7 (Homo sapiens, UniProt P47929); assay: Lactose binding affinity, summary over NMR, intrinsic fluorescence, BLI and ITC
T3 construct: The constructs encoding the open reading frames of hGal1, hGal7 and hGal8 with a hexahistidine tag at the N-termini; hexahistidine (N); made in house; host or cells: Escherichia coli BL21 (DE3)
Protocol: (§2) The samples were subjected to intrinsic fluorescence measurements using a 3 mm quartz cell (Hellma) and a fluorimeter (Jasco FP-8500, Hachioji, Tokyo, Japan). […] The resulting titration data were processed by SVD analysis, as described previously.
(§3) BLI experiments were carried out using an Octet Red96 system (FortéBio, Menlo Park, CA, USA), as described previously.
as §1

[5] = biological target: glutathione-S-transferase (GST)-fused hGal8^NTD; parameters: method as in PMID 12851289; settings: read-out: lactose Kd (SPR); cited from earlier work
GST-fused hGal8^CTD = biological target: GST-fused hGal8^CTD; parameters: method as in PMID 12851289; settings: read-out: lactose Kd (SPR); cited from earlier work
[6] = biological target: GST-fused tandem-repeat construct (hGal8); parameters: method as in PMID 12851289; settings: read-out: apparent lactose Kd (SPR); cited from earlier work
hGal1 (human galectin-1) = hGal1 (human galectin-1) (Homo sapiens, UniProt P09382); assay: Isothermal titration calorimetry (ITC); settings: 298 K, PBS
Protocol: (§5) The experiments were carried out at 298 K and in PBS. […] The thermograms were extracted, processed and subjected to nonlinear regression using the built-in software based on Origin (OriginLab, Northampton, MA, USA) to determine the respective binding constants.

hGal7 (human galectin-7) [7] = biological target: T4, hGal7 (human galectin-7) (Homo sapiens, UniProt P47929); assay: Isothermal titration calorimetry (ITC)
Protocol: as §5

hGal8^NTD [8] = biological target: T5, hGal8^NTD (Homo sapiens, UniProt O00214); assay: Isothermal titration calorimetry (ITC)
T5 sequence (O00214 1-155 limits assumed): T1 sequence (O00214 1-155 limits assumed)
Protocol: as §5

hGal8^CTD [9] = biological target: T6, hGal8^CTD (Homo sapiens, UniProt O00214); assay: Isothermal titration calorimetry (ITC)
T6 sequence (O00214 187-317 limits assumed): T2 sequence (O00214 187-317 limits assumed)
Protocol: as §5

[10] = biological target: T7, hGal8^full(NTD) (NTD of full-length galectin-8) (Homo sapiens, UniProt O00214); assay: NMR titration, global fit of chemical shift perturbations (CSP); settings: Lactose Kd, NTD of full-length hGal8 (tandem-repeat, 17-residue linker), 298 K
T7 sequence (O00214 1-317): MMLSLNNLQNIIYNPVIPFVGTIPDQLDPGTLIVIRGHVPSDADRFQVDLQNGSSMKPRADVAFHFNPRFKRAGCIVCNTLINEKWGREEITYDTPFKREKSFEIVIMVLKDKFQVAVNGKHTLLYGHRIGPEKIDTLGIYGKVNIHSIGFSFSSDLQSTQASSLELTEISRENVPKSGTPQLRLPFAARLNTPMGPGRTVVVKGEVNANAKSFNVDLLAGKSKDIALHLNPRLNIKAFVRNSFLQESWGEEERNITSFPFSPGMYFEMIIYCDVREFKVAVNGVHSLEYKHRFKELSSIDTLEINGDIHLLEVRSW

[11] = biological target: T8, hGal8^full(CTD) (CTD of full-length galectin-8) (Homo sapiens, UniProt O00214); assay: as above; settings: Lactose Kd, CTD of full-length hGal8 (tandem-repeat, 17-residue linker), 298 K
T8 sequence (O00214 1-317): T7 sequence (O00214 1-317)

hGal8^NTD [12] = biological target: T5, hGal8^NTD; assay: Intrinsic tryptophan fluorescence titration (SVD analysis); format: binding; parameters: hexahistidine tag (N); made in house; host or cells: Escherichia coli BL21 (DE3); settings: 298 K, PBS, 10 μM protein
Text: as §2

hGal8^NTD [13] = biological target: T5, hGal8^NTD; assay: Bio-layer interferometry (BLI), steady-state fit; format: binding; parameters: hexahistidine tag (N); made in house; host or cells: Escherichia coli BL21 (DE3); settings: biotinylated galectin on SSA biosensor
Protocol: as §3

hGal8^NTD [14] = biological target: T5, hGal8^NTD; assay: Lactose binding affinity, summary over NMR, intrinsic fluorescence, BLI and ITC; parameters: hexahistidine tag (N); made in house; host or cells: Escherichia coli BL21 (DE3); settings: summary over the biophysical tools
Protocol: as §2, §3, §1

hGal8^CTD [15] = biological target: T6, hGal8^CTD; assay: Intrinsic tryptophan fluorescence titration (SVD analysis); format: binding; parameters: hGal8 N-terminal domain (hGal8^NTD) and C-terminal domain (hGal8^CTD); made in house; host or cells: Escherichia coli BL21 (DE3); settings: 298 K, PBS, 10 μM protein
Text: as §2

hGal8^CTD [16] = biological target: T6, hGal8^CTD; assay: Bio-layer interferometry (BLI), steady-state fit; format: binding; parameters: hGal8 N-terminal domain (hGal8^NTD) and C-terminal domain (hGal8^CTD); made in house; host or cells: Escherichia coli BL21 (DE3); settings: biotinylated galectin on SSA biosensor
Protocol: as §3

hGal8^CTD [17] = biological target: T6, hGal8^CTD; assay: Lactose binding affinity, summary over NMR, intrinsic fluorescence, BLI and ITC; parameters: hGal8 N-terminal domain (hGal8^NTD) and C-terminal domain (hGal8^CTD); made in house; host or cells: Escherichia coli BL21 (DE3); settings: summary over the biophysical tools
Protocol: as §2, §3, §1

[18] = biological target: T8, hGal8^full(CTD) (CTD of full-length galectin-8); assay: 2D NMR lineshape analysis (TITAN), two-state binding model; parameters: A full-length hGal8 (hGal8^full) variant encompassing a 17-residue linker was used; hexahistidine tag (N); made in house; host or cells: Escherichia coli BL21 (DE3); settings: CTD of full-length hGal8 (N215), 298 K
Protocol: (§4) The advantage of using NMR titration to determine Kd values is the ability to simultaneously characterise microscopy binding events at different binding sites. […] The same lineshape analysis was performed for hGal8^full titration experiments, which yielded similar Kd values to those derived from CSP data (Figure S2; Table 1).
as §1

[19] = biological target: T7, hGal8^full(NTD) (NTD of full-length galectin-8); assay: as above; parameters: A full-length hGal8 (hGal8^full) variant encompassing a 17-residue linker was used; hexahistidine tag (N); made in house; host or cells: Escherichia coli BL21 (DE3); settings: NTD of full-length hGal8 (G127), 298 K
Protocol: as §4, §1

hGal7 (human galectin-7) [20] = biological target: T4, hGal7 (human galectin-7); assay: NMR titration, global fit of chemical shift perturbations (CSP); format: binding; parameters: The constructs encoding the open reading frames of hGal1, hGal7 and hGal8 with a hexahistidine tag at the N-termini; hexahistidine tag (N); made in house; host or cells: Escherichia coli BL21 (DE3); settings: 298 K, global fit of CSPs > 2σ
hGal7 (human galectin-7) [21] = biological target: T4, hGal7 (human galectin-7); assay: 2D NMR lineshape analysis (TITAN), two-state binding model; parameters: The constructs encoding the open reading frames of hGal1, hGal7 and hGal8 with a hexahistidine tag at the N-termini; hexahistidine tag (N); made in house; host or cells: Escherichia coli BL21 (DE3); settings: 298 K
Protocol: as §1

hGal7 (human galectin-7) [22] = biological target: T4, hGal7 (human galectin-7); assay: Intrinsic tryptophan fluorescence titration (SVD analysis); format: binding; parameters: The constructs encoding the open reading frames of hGal1, hGal7 and hGal8 with a hexahistidine tag at the N-termini; hexahistidine tag (N); made in house; host or cells: Escherichia coli BL21 (DE3); settings: Lactose Kd, 298 K, PBS, 10 μM protein
Text: as §2

hGal7 (human galectin-7) [23] = biological target: T4, hGal7 (human galectin-7); assay: Bio-layer interferometry (BLI), steady-state fit; format: binding; parameters: The constructs encoding the open reading frames of hGal1, hGal7 and hGal8 with a hexahistidine tag at the N-termini; hexahistidine tag (N); made in house; host or cells: Escherichia coli BL21 (DE3); settings: biotinylated galectin on SSA biosensor
Protocol: as §3

hGal3 = settings: cited from earlier work

T4 sequence (P47929 whole entry): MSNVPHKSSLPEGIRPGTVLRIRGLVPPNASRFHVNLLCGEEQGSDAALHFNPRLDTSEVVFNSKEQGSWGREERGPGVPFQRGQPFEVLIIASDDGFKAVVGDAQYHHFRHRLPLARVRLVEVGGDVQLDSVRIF
hGal1 (human galectin-1), sequence (P09382 whole entry): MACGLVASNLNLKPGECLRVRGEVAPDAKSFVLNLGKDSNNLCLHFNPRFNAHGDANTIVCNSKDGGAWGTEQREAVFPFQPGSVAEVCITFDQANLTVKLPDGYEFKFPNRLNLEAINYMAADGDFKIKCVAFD
T3 sequence (P47929 whole entry): as the sequence (P47929 whole entry) above

OC[C@H]1O[C@@H](O[C@H]2[C@H](O)[C@@H](O)C(O)O[C@@H]2CO)[C@H](O)[C@@H](O)[C@H]1O (mixture of isomers) [Lactose, lactose]
Kd [1]: 84 ± 9 µM
Kd [2]: 664 ± 59 µM
Kd [3]: 950 ± 10 µM
Kd [4]: 86.3 µM and 86 µM
Kd (hGal7): ~350 µM
Kd [5]: 80 µM
Kd (GST-fused hGal8^CTD): 440 µM
Kd [6]: 140 µM
N (ITC OneSites model) (hGal1 (human galectin-1)): 1.51 ± 0.113 sites
ΔH (ITC OneSites model) (hGal1 (human galectin-1)): -5772 ± 489.7 cal/mol
ΔS (ITC OneSites model) (hGal1 (human galectin-1)): -2.53 cal/mol/deg
Kd (hGal7 (human galectin-7) [7]): 323 µM
N (ITC OneSites model) (hGal7 (human galectin-7) [7]; hGal7, 298 K, PBS): 0.0702 ± 0.00475 sites
ΔH (ITC OneSites model) (hGal7 (human galectin-7) [7]; hGal7, 298 K, PBS): -1.883E4 ± 1326 cal/mol
ΔS (ITC OneSites model) (hGal7 (human galectin-7) [7]; hGal7, 298 K, PBS): -47.2 cal/mol/deg
Kd (hGal8^NTD [8]): 93 ± 1 µM
K (binding constant, ITC OneSites model) (hGal8^NTD [8]; hGal8^NTD, 298 K, PBS): 1.08E4 ± 121 M-1
N (ITC OneSites model) (hGal8^NTD [8]; hGal8^NTD, 298 K, PBS): 0.818 ± 0.0154 sites
ΔH (ITC OneSites model) (hGal8^NTD [8]; hGal8^NTD, 298 K, PBS): -1.466E4 ± 302.2 cal/mol
ΔS (ITC OneSites model) (hGal8^NTD [8]; hGal8^NTD, 298 K, PBS): -30.7 cal/mol/deg
Kd (hGal8^CTD [9]): 893 ± 25 µM
K (binding constant, ITC OneSites model) (hGal8^CTD [9]; hGal8^CTD, 298 K, PBS): 1.12E3 ± 31.0 M-1
N (ITC OneSites model) (hGal8^CTD [9]; hGal8^CTD, 298 K, PBS): 1.68 ± 0.212 sites
ΔH (ITC OneSites model) (hGal8^CTD [9]; hGal8^CTD, 298 K, PBS): -3045 ± 401.2 cal/mol
ΔS (ITC OneSites model) (hGal8^CTD [9]; hGal8^CTD, 298 K, PBS): 3.74 cal/mol/deg
Kd [10]: ~130 µM and 128 µM
Kd [11]: ~1.5 mM and 1.48 mM
Kd (hGal8^NTD [12]): 88 ± 2 µM
Kd (hGal8^NTD [13]): 89 ± 26 µM
Kd (hGal8^NTD [14]): 84 to 93 µM and 80 µM
Kd (hGal8^CTD [15]): 772 ± 56 µM
Kd (hGal8^CTD [16]): 873 ± 526 µM
Kd (hGal8^CTD [17]): 664 to 950 µM and 800 µM
Kd [18]: 1.186 ± 0.011 mM
Kd [19]: 167 ± 7 µM
Kd (hGal7 (human galectin-7) [20]): 397 ± 14 µM
Kd (hGal7 (human galectin-7) [21]): 352 ± 9 µM
Kd (hGal7 (human galectin-7) [22]): 340 µM and 331 µM
Kd (hGal7 (human galectin-7) [23]): 347 ± 180 µM

OC[C@H]1O[C@@H](S[C@@H]2O[C@H](CO)[C@H](O)[C@H](n3cc(-c4cccc(F)c4)nn3)[C@H]2O)[C@H](O)[C@@H](n2cc(-c3cccc(F)c3)nn2)[C@H]1O [TD139]
Kd (hGal3): low nanomolar
